Here are results for 10 molecules from PubChem BioAssay (NCI).

Common to all, as to test: NCI-60 cell line screen, 48 h
In assay [1] the test system is ACHN renal.
Assay [2] has as its system CAKI-1 renal.
In assay [3] the test system is CCRF-CEM leukemia.
The subject of assay [4] is COLO 205 colon.
For assay [5], the system named is DU-145 prostate.
The subject of assay [6] is EKVX NSCLC.
Assay [7] relates to HOP-92 NSCLC.
Assay [8] concerns KM12 colon.
For assay [9], the system named is MCF7 breast.
In assay [10] the test system is MDA-MB-231 breast.
The subject of assay [11] is MOLT-4 leukemia.
Assay [12] has as its system NCI-H226 lung.
Assay [13] relates to NCI-H522 lung.
Assay [14] deals with SF-268 CNS.
The test system of assay [15] is SNB-19 CNS.
In assay [16] the test system is SW-620 colon.
Assay [17] has as its system T-47D breast.

Where “and” joins values, the source holds several entries; their conditions need not be identical. Equal entries are not always repeated.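 Growth conditions: 96-well plates. Treatment: test compound, 48 hours, 5 concentrations. Analysis: linear interpolation between bracketing concentrations; unreached endpoints set to highest concentration. Here, GI50 denotes the concentration required for 50% inhibition of growth. The concentration for full growth arrest is given as TGI.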

On to `C/C=C/[C@@H]1O[C@H](CC#C[Si](C)(C)C)[C@@]2(C=O)C(C)=CC[C@H](C(C)C)[C@@H]12`, for which the TGI in [1] worked out at 39.9 µM; in assay [2] it was 5.13 µM; in [3] it was 6.24 µM; in [4], 66.1 µM; in [5] it was 51.8 µM; in assay [6], 41 µM. The TGI in [7] came to 41.4 µM; in assay [8], 40.8 µM; in assay [9] it was 63.1 µM; in [10] it was 36.6 µM; in assay [11] it was 34.5 µM; in assay [12] it was 41.7 µM. Moreover, the TGI in [13] is 4.78 µM; in [14] it was 52.3 µM; in assay [15] it was 62.3 µM; in [16] it was 59.5 µM; in [17] it was > 100 µM.
As to `CC(C)(N=NC(C)(C)C1=NCCN1)C1=NCCN1`, the TGI in assay [1], in [2], in assay [3], in assay [4], in assay [5] and in [6] was > 100 µM throughout. In addition, the TGI in [7], in [8], in assay [9], in assay [10], in assay [11] and in [12] was > 100 µM in each case. The TGI in assay [13] was > 100 µM and 60 µM; in assay [14] it was > 100 µM; in assay [15] it was > 100 µM; in [16] it was > 100 µM; in [17] it was > 100 µM. The GI50 in assay [13] was 9.38 µM and 21.4 µM.
As to `CCOC(=O)/C=C/[C@H](O[Si](c1ccccc1)(c1ccccc1)c1ccccc1)C(C)(C)C`, the TGI in assay [1], in assay [2], in assay [3], in [4], in assay [5] and in [6] was > 31.6 µM each time. Also, the TGI in [7], in [8], in assay [9], in assay [10], in assay [11] and in [12] was > 31.6 µM each time. Moreover, the TGI in assay [13], in assay [14], in [15], in [16] and in assay [17] was > 31.6 µM in each case.
As to `COC(=O)c1cc(C)ccc1CC(Cc1ccccc1C)C(=O)OC` (stereo unspecified), the TGI was > 100 µM in assay [1]; > 100 µM in assay [2]; 44.3 µM in assay [3]; > 100 µM in [4]; > 100 µM in assay [5]; 76.3 µM in [6]. Also, the TGI was 79.7 µM in assay [7]; > 100 µM in assay [8]; 94.8 µM in [9]; > 100 µM in [10]; 24.7 µM in [11]; > 100 µM in [12]. The TGI in [13] is 74.1 µM; in assay [14], > 100 µM; in assay [15] it was > 100 µM; in assay [16], > 100 µM; in assay [17], > 100 µM.
`O=C(NCCCCNCCCNC(=O)C(F)(F)F)C(F)(F)F`: the TGI in assay [1], in [2], in [3], in [4], in assay [5] and in assay [6] was > 100 µM in each case. Further, the TGI in [7], in [8], in [9], in assay [10], in assay [11] and in assay [12] was > 100 µM each time. The TGI in assay [13], in [14], in assay [15], in assay [16] and in assay [17] was > 100 µM in each case.
Turning to `O/N=C1\CC2(N3CCOCC3)CCC1(Cc1ccccc1)CC2`, the TGI in [1] is 63.4 µM; in assay [2], > 100 µM; in assay [3], > 100 µM; in [4], > 100 µM; in assay [5], > 100 µM; in [6], > 100 µM. For the same molecule, the TGI in [7] was 89.2 µM; in assay [8] it was > 100 µM; in assay [9], > 100 µM; in [10], 67 µM; in assay [11], > 100 µM; in assay [12], 83.1 µM. Further, the TGI was > 100 µM in [13]; 76.6 µM in assay [14]; 63.5 µM in assay [15]; > 100 µM in assay [16]; > 100 µM in [17].
For the molecule `C=CC1(CBr)CCC(C(C)(C)Br)O1` (stereo unspecified), the TGI was 30.2 µM in assay [1]; 16.5 µM in assay [2]; 6.51 µM in assay [3]; 20.6 µM in [4]; 25.7 µM in assay [5]; 32.1 µM in assay [6]. Further, the TGI in [7] stood at 28.6 µM; in [8] it was 26.1 µM; in assay [9], 34.1 µM; in [10], 28.3 µM; in [11], 7.06 µM; in assay [12], 46.7 µM. For the same molecule, the TGI was determined as 7.14 µM in assay [13]; 38.2 µM in [14]; 30.1 µM in assay [15]; 10.5 µM in assay [16]; 15.5 µM in [17].
On to `O=C(c1ccco1)N1CCN(C(=O)c2ccco2)C1=S`, for which the TGI in assay [1] came out at 22.3 µM; in assay [2], 16.7 µM; in assay [3], 5.7 µM; in [4], 21.2 µM; in assay [5], 7.99 µM; in [6], 36.7 µM. Also, the TGI worked out at 23.6 µM in [7]; 15 µM in assay [8]; 11 µM in [9]; 25.4 µM in assay [10]; 24.5 µM in assay [11]; 51.5 µM in [12]. The TGI in assay [13] was 19.4 µM; in [14] it was 21.8 µM; in assay [15], > 79.5 µM; in [16], 24.7 µM; in [17] it was 27.8 µM.
For the molecule `COc1cc(/C=C/C(=O)O)ccc1O`, the TGI in assay [1], in assay [2], in assay [3], in [4], in assay [5] and in assay [6] was > 100 µM each time. The TGI in [7], in [8], in [9], in [10], in assay [11] and in assay [12] was > 100 µM in each case. Further, the TGI in [13], in [14], in [15], in [16] and in assay [17] was > 100 µM in each case.
For `COc1ccc(NC(C)=O)c(C(=O)CCNC(C)=O)c1`, the TGI in assay [1], in assay [2], in assay [3], in assay [4], in [5] and in [6] was > 100 µM each time. Also, the TGI in assay [7], in assay [8], in assay [9], in [10], in assay [11] and in assay [12] was > 100 µM in each case. Moreover, the TGI in assay [13], in [14], in [15], in [16] and in assay [17] was > 100 µM throughout.
